Measurements reported in ChEMBL document CHEMBL1134860, “Novel thiophene derivatives for the treatment of benign prostatic hyperplasia” (Bioorg Med Chem Lett, 2002).

Columns and labels:
[1] = molecular target: T1, Alpha-1D adrenergic receptor (Homo sapiens, UniProt P25100); assay: Displacement of [125I]-HEAT from human Alpha-1D adrenergic receptor expressed in COS cells membranes; format: cell membranes
T1 sequence (P25100 whole entry): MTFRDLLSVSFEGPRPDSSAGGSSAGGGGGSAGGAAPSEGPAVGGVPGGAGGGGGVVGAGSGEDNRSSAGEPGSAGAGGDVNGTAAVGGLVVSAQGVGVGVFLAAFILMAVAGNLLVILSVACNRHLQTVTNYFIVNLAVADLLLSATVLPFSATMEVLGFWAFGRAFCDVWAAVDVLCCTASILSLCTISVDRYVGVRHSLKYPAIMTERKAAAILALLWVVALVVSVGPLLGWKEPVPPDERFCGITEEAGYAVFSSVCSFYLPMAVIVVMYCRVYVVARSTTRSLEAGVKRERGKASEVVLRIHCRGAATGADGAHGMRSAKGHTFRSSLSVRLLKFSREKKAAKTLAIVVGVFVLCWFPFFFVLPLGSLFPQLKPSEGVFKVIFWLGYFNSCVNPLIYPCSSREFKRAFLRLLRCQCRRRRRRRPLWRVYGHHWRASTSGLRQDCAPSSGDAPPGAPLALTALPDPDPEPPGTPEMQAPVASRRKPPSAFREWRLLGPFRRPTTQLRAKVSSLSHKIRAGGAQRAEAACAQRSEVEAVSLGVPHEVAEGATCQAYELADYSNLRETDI

[2] = molecular target: T2, Alpha-1A adrenergic receptor (Homo sapiens, UniProt P35348); assay: Displacement of [125I]HEAT from COS cell membranes expressing human Alpha-1A adrenergic receptor
T2 sequence (P35348 whole entry): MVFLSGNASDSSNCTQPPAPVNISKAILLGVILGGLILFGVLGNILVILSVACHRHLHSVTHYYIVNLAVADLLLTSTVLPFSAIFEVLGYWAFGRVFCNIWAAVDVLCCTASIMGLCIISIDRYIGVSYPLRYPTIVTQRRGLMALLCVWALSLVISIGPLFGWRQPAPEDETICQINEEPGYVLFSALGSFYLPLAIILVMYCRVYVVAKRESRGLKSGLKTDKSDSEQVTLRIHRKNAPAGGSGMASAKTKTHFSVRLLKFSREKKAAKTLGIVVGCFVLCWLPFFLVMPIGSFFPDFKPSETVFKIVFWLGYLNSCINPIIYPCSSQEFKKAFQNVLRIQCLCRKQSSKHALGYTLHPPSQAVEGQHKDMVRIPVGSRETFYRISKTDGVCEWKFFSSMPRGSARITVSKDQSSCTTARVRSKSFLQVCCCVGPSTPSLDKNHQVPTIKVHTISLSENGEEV

[3] = molecular target: Adrenergic receptors; alpha-1 A & B (Homo sapiens) (UniProt P35348+P35368); assay: Relative binding to alpha-1b and alpha-1a receptors (ratio of Ki); format: protein assay
[4] = molecular target: T3, Alpha-1B adrenergic receptor (Homo sapiens, UniProt P35368); assay: Displacement of [125I]HEAT from COS cells membranes expressing human Alpha-1B adrenergic receptor; format: cell membranes
T3 sequence (P35368 whole entry): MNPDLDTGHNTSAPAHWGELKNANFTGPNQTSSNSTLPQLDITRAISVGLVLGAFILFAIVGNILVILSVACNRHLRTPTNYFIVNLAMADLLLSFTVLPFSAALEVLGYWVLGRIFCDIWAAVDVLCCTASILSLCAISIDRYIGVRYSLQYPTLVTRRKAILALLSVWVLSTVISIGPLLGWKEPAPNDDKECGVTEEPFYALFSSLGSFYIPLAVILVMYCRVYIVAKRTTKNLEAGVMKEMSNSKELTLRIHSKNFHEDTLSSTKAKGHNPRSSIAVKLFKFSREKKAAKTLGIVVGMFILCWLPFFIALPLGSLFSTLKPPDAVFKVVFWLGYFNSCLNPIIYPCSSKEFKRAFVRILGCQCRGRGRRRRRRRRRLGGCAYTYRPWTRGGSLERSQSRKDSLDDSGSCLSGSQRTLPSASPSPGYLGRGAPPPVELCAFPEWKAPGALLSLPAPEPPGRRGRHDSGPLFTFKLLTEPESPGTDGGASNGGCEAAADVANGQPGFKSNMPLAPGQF

[5] = molecular target: Alpha adrenergic receptor (1a and 1d) (Homo sapiens) (UniProt P35348+P25100); assay: Relative binding to alpha1d and alpha-1a receptors (ratio of Ki); format: protein assay

With `CC(C)Oc1ccccc1N1CCN(Cc2ccc(CN3CCCCC3=O)s2)CC1` the Ki [1] was 18 nM, the Ki [2] was 0.3 nM and the Ratio [3] was 1250. For the same compound, the Ki [4] was 413 nM and the Ratio [5] was 54.
For `CC(C)Oc1ccccc1N1CCN(Cc2cc(CN3CCCCC3=O)cs2)CC1`, the Ki [1] was 92 nM, the Ki [2] was 0.5 nM and the Ratio [3] was 769. The Ki [4] was 384 nM and the Ratio [5] was 184.
In the case of `COC(=O)[C@@H]1CCCN1Cc1ccc(CN2CCN(c3ccccc3OC)CC2)s1`, the Ki [1] is reported as 15 nM, the Ki [2] is reported as 12 nM and the Ratio [3] is reported as 49. It also gave a Ki [4] of 592 nM and a Ratio [5] of 1.3.
For `COc1ccccc1N1CCN(Cc2ccc(CN3CCCC3=O)s2)CC1`, the Ki [1] was 23 nM, the Ki [2] was 40 nM and the Ratio [3] was greater than 125. The Ki [4] was greater than 5000 nM and the Ratio [5] was 0.6.
Work on `CC(C)Oc1ccccc1N1CCN(Cc2cc(CO)cs2)CC1` yielded a Ki [1] of 339 nM, a Ki [2] of 331 nM and a Ratio [3] greater than 15. It also gave a Ki [4] greater than 5000 nM and a Ratio [5] of 1.
`COc1ccccc1N1CCN(Cc2ccc(Br)s2)CC1` showed a Ki [1] of 92 nM, a Ki [2] of 128 nM and a Ratio [3] of 6. The Ki [4] was 757 nM and the Ratio [5] was 0.7.
Work on `CC(C)Oc1ccccc1N1CCN(Cc2cc(CN3CCCCCC3=O)cs2)CC1` yielded a Ki [1] of 47 nM, a Ki [2] of 1.8 nM and a Ratio [3] of 342. It also gave a Ki [4] of 615 nM and a Ratio [5] of 26.
For `COc1ccccc1N1CCN(Cc2ccc(CO)s2)CC1`, the Ki [1] was 138 nM, the Ki [2] was 202 nM and the Ratio [3] was 5.3. The Ki [4] was 1060 nM and the Ratio [5] was 0.7.
`CC(C)Oc1ccccc1N1CCN(Cc2cc(CN3CCCC3=O)cs2)CC1` gave a Ki [1] of 25 nM, a Ki [2] of 0.2 nM and a Ratio [3] of 1520. The Ki [4] was 259 nM and the Ratio [5] was 147.
`COc1ccccc1N1CCN(Cc2ccc(CN3CCCCC3O)s2)CC1` (stereo not given) was tested, and the Ki [1] was 130 nM, the Ki [2] was 419 nM and the Ratio [3] was 6.1. It also gave a Ki [4] of 2570 nM and a Ratio [5] of 0.3.
Work on `COc1ccccc1N1CCN(Cc2ccc(CN3CCCCCC3=O)s2)CC1` yielded a Ki [1] of 13 nM, a Ki [2] of 18 nM and a Ratio [3] greater than 278. It also gave a Ki [4] greater than 5000 nM and a Ratio [5] of 0.7.
In the case of `COc1ccccc1N1CCN(Cc2ccc(C=O)s2)CC1`, the Ki [1] is reported as 262 nM, the Ki [2] is reported as 578 nM and the Ratio [3] is reported as 3.2. The Ki [4] was 1880 nM and the Ratio [5] was 0.4.
`COc1ccccc1N1CCN(Cc2ccc(CN3CCCCC3=O)s2)CC1` gave a Ki [1] of 12 nM, a Ki [2] of 14 nM and a Ratio [3] greater than 357. The Ki [4] was greater than 5000 nM and the Ratio [5] was 0.9.
